These results are taken from patent publication US8372380B2, “In vivo imaging of sulfotransferases” (The Regents of the University of California, priority 2007, dated 2013).

Molecules are shown by their SMILES.

Data set [1] addresses T1, sulfotransferase SULT1A1 (Rattus norvegicus, UniProt P17988).
T1 construct: from tissue; host or cells: living Sprague-Dawley rat (brain, chest, abdomen)
As to the kind of experiment: In vivo microPET imaging of sulfotransferase activity and inhibition in rat. More on the design: species or system Sprague-Dawley rat. The protocol:
(§1) A bolus of a radiolabeled tracer is administered intravenously to a non-human primate, rodent, or other non-human mammal, and the distribution of tracer transport activity is followed by radiographic means, e.g., PET, microPET and/or SPECT. For PET, an intravenous dose of the tracer contains ˜0.1-3 mCi/kg (body weight) dissolved in <1 ml of 10% ethanol in saline. The identity of each organ and tissue taking up the tracer can be confirmed by CT scans. Scans can be conducted both with and without administering one or more pharmacological agents, e.g., 2,6-dichloro-4-nitrophenol, quercitin, curcumin, etc.
FIG. 7 depicts in vivo microPET imaging of sulfotransferase activity and inhibition in a male, Sprague-Dawley rat suffering from renal hypertension, chronic progressive nephropathy, and lung inflammation, using 4-[^18F]-fluoro-3-nitrophenol as a substrate and 2,6-dichloro-4-nitrophenol as an inhibitor. 4-[^18F]-fluoro-3-nitrophenol was administered as a bolus injection (0.5 to 2.0 mCi) and the rat brain was scanned dynamically for 60 min. Subsequently, the chest was scanned for 5 min., followed by a 5 min. scan of the abdomen.

The subject of data set [2] is sulfotransferase SULT1E1. As to the kind of experiment: In vivo microPET imaging of SULT1E1 expression in rats. More on the design: species or system Sprague-Dawley rats. To be noted: images 15-25 min after injection. The protocol:
as §1
(§2) FIG. 5 depicts in vivo microPET imaging of sulfotransferase SULT1E1 expression in healthy and inflamed lungs in 8-9 month old male Sprague-Dawley rats, using the substrate 2-(4′-([^11C]-methylamino)phenyl)-6-hydroxybenzothiazole. On the left are shown the chest and upper abdomen of a healthy control rat; on the right is a rat suffering from renal hypertension, chronic progressive nephropathy, and lung inflammation. Both animals were injected with 2.0-2.5 mCi of activity. The images shown were acquired over the period of 15-25 min after injection. […] Warmer colors represent higher levels of tracer uptake.

The target of data set [3] is T2, sulfotransferase SULT1E1 (Homo sapiens, UniProt P49888).
T2 construct: from tissue; host or cells: living human subjects (lungs, liver, kidneys)
T2 sequence (P49888 1-294): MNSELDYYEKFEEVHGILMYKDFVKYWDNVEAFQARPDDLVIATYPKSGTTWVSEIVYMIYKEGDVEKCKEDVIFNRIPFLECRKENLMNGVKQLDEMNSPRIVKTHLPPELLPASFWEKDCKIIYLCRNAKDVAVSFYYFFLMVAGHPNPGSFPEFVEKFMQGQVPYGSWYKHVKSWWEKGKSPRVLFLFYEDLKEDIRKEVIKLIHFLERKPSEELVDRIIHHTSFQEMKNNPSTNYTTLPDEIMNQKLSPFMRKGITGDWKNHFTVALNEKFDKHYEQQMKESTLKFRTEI
As to the kind of experiment: In vivo PET imaging of SULT1E1 expression in humans. To be noted: PET 20-45 minutes after injection. On the procedure:
A bolus of a radiolabeled tracer is administered to a human subject by intravenous injection, and its uptake into a tumor (in the case of cancer), one or more organs of interest, and/or other tissues of the body is followed radiographically. For a 50-70 kg person, 10 mCi of an appropriate tracer from Table 1 or 2 (e.g.) is dissolved in <10 ml 10% ethanol in saline and is injected intravenously, and the distribution of the tracer is followed dynamically with PET for up to 2 hours (multiple whole-body scans at different time intervals or dynamic PET scan of a specific organ). SULT activity in organs and tissues is determined using tracer kinetic modeling from the PET determined tracer uptake data. The anatomical location of tracer uptake in both normal subjects and cancer patients can be determined using CT scans.
FIG. 6 depicts in vivo PET imaging of sulfotransferase SULT1E1 expression in two adult male humans. […] Increased SULT1E1 expression associated with lung inflammation caused by smoking is clearly visible in the lungs of the smoker. Both subjects were scanned with PET 20-45 minutes after being injected with the tracer 2-(4′-([^11C]-methylamino)phenyl)-6-hydroxybenzothiazole. The smoker received a dose of 10.5 mCi, and the non-smoker received 10.0 mCi. The images were normalized by dividing the signal values with dose injected per kg of body weight.

Data set [4] has as its target T3, SULT1A1 (Homo sapiens, UniProt P50225).
T3 construct: purchased Sigma; host or cells: sf-9 insect cells (baculovirus)
As to the kind of experiment: Substrate sulfonation assay, SULT1A1. It is filed as biochemical. The note with it: in vitro sulfonation. The source says: (§3) β-Naphthol (BN, a reference control), para-nitrophenol (PNP), estradiol (E2), dehydroepiandrosterone (DHEA), dopamine, dithiothreitol (DTT), and MgCl2 were purchased from Sigma (St. Louis, Mo.). Cytosolic extract of sf-9 insect cells infected with a baculovirus containing SULT cDNAs (SULT1A1, SULT1A3, SULT1E1, SULT2A1) were also purchased from Sigma. [^35S]-3′-Phosphoadenosine 5′-Phosphosulfate (PAPS)(1-3 Ci/mmol) was purchased from Perkin Elmer (Waltham, Mass.). Aluminum-backed silica TLC plates were purchased from Whatman.
(§4) Substrate sulfonation assays were performed using cytosolic sulfotransferases SULT1A1, SULT1A3, SULT1E1, and SULT2A1. Enzyme kinetic parameters were determined by using substrate concentration curves. The sulfonation reaction was carried out using [^35S]-PAPS as the sulfate donor, and the reaction mixture was analyzed using a thin-layer chromatography (TLC) method described in literature (Falany et al., 2006). […] TLC plates were exposed on digital autoradiography plates for 2 hrs and read in with a Fuji BAS-5000 digital autoradiography plate reader. The results were quantitated with the software provided with the scanner. […] Vials were counted using MP-Ecolite+ LS fluid and a Packard Tricarb 2300TR LSC for 5 min per vial. Reactions were monitored for linearity with time and enzyme concentration to ensure the enzyme was the limiting factor. […]

The conditions of data set [5]: rat brain; Mathis et al., 2004; cited from earlier work.
A short description of data set [6]: Plasma metabolite analysis of tracer in rats. It is filed as in vivo, Sprague-Dawley rats. The note with it: rat plasma, after 10-15 min. On the procedure:
as §2
Metabolite analysis was performed using reverse phase C-18 TLC plates and a mixture of methanol, acetic acid and water (80:5:15, respectively). Plasma was de-proteinated with addition of an equal volume of methanol. The supernatant was spotted on the plates and the plates developed in the mobile phase. The analysis of the plates was performed as described above in the description of the sulfonation assays (Ex. 1-25). Metabolites were identified as follows: […] samples of plasma were mixed with 500-1000 U of either […] (to remove the sulfonated metabolite) or glucoronidase (to remove glucoronidated metabolite). […] The supernatants were analyzed as described above and the results compared with the results for un-treated plasma.

Data set [7] addresses T4, SULT1E1 (Homo sapiens, UniProt P49888).
T4 construct: purchased Sigma; host or cells: sf-9 insect cells (baculovirus)
T4 sequence (P49888 1-294): T2 sequence (P49888 1-294)
Put plainly: Substrate sulfonation assay, SULT1E1. It is filed as biochemical. The note with it: in vitro sulfonation.
Source text: as §3, §4

Data set [8] addresses T5, sulfotransferase SULT1A1 (Homo sapiens, UniProt P50225).
T5 construct: purchased Sigma; host or cells: sf-9 insect cells (baculovirus)
Put plainly: Inhibition of SULT1A1 sulfonation of para-nitrophenol (PNP). It is filed as biochemical. To be noted: inhibition of SULT1A1 sulfonation of 4-nitrophenol; 37° C., 15 min, [35S]-PAPS.
Source text: as §3
Substrate sulfonation assays were performed using cytosolic sulfotransferases SULT1A1, SULT1A3, SULT1E1, and SULT2A1. Enzyme kinetic parameters were determined by using substrate concentration curves. The sulfonation reaction was carried out using [^35S]-PAPS as the sulfate donor, and the reaction mixture was analyzed using a thin-layer chromatography (TLC) method described in literature (Falany et al., 2006). Reaction mixtures consisted of 10 μL of substrates, originally dissolved in dimethyl sulfoxide and diluted to 1% with Tris-HCl buffer; 50 mM Tris-HCl buffer, pH 7.4; 0.1% bovine serum albumin; 7.5 mM DTT; and 1 μM [^35S]-PAPS in the final volume of 50 μL. The final concentration of dimethyl sulfoxide was kept at 0.2%. Reactions with SULT1E1 and SULT2A1 were supplemented with 7 mM MgCl2; reactions with SULT1A3 included 1 mM pargyline. Control reactions were performed under identical conditions without addition of substrates. Sulfonation reactions were carried out at 37° C. for 15 min. Enzymatic activity was terminated by precipitation with 50 μL of ice cold methanol and cooling the mixture at −20° C. Subsequently, 20 μL aliquots of the supernatant were spotted on silica gel TLC plates and were developed in t-butanol:acetic acid:water (8:1:1 by volume). Sulfonated products (Rf=0.66±0.05) were well separated from unreacted [^35S]PAPS, which was retained at the origin. TLC plates were exposed on digital autoradiography plates for 2 hrs and read in with a Fuji BAS-5000 digital autoradiography plate reader. The results were quantitated with the software provided with the scanner. Spots were localized and the silica gel was scraped into liquid scintillation vials. Vials were counted using MP-Ecolite+ LS fluid and a Packard Tricarb 2300TR LSC for 5 min per vial. Reactions were monitored for linearity with time and enzyme concentration to ensure the enzyme was the limiting factor.
In vitro inhibition reactions were performed using the standard SULT1A1 substrate, para-nitrophenol (PNP), against various 4′-substituted 2-phenyl-6-hydroxybenzothiazoles shown in Table 3. PNP was dissolved in 50 mM Tris-HCl buffer (pH 7.4), and inhibitors were dissolved in dimethyl sulfoxide and diluted to 1% dimethyl sulfoxide concentration with the Tris-HCl buffer. […]

The target in data set [9] is brain SULT1A enzymes. To be noted: Vietri et al., 2002b, read-out: IC50 for blocking sulfonation of R(−)-apomorphine; cited from earlier work.

The Ki is a dissociation constant, usually derived from enzyme kinetics or from competition with a known ligand. A low value points to a stronger hold on the target. Usually IC50 stands for the midpoint of a concentration-inhibition curve.

T5 sequence (P50225 whole entry): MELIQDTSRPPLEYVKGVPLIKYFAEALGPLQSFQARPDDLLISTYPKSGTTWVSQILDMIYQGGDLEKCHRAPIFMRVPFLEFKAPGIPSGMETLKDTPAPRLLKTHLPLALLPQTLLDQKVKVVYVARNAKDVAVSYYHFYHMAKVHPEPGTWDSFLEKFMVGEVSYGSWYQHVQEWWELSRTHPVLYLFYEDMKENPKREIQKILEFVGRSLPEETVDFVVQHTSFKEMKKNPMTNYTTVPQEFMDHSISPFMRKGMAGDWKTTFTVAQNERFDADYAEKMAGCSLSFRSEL
T1 sequence (P17988 whole entry): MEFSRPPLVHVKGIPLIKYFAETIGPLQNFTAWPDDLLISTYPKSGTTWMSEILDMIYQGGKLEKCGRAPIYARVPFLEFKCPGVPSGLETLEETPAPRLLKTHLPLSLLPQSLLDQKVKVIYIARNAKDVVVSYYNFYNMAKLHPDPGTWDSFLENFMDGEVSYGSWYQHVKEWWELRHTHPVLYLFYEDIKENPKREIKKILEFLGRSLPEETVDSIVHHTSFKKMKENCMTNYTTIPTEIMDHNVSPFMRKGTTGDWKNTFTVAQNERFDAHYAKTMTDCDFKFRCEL
T3 sequence (P50225 whole entry): as the sequence (P50225 whole entry) above

In the case of `O=[N+]([O-])c1cc(Cl)c(O)c(Cl)c1` [2,6-dichloro-4-nitrophenol], the “effect on SULT1A1 activity in vivo (microPET)” value in data set [1] (5 mg/Kg at the time of the 4-[18F]-fluoro-3-nitrophenol bolus injection) is “inhibitory effect on SULT1A1 activity”.
Take `[11CH3]Nc1ccc(-c2nc3ccc(O)cc3s2)cc1` [2-(4′-([^11C]-methylamino)phenyl)-6-hydroxybenzothiazole]: the results for the “tracer uptake in lungs” value in data set [2] (healthy control rat), in data set [2] (rat with lung inflammation) and in data set [3] (versus background (muscles)) were “indistinguishable from the background”, “increased uptake” and “increased level of uptake compared with the background”, respectively. The “tracer activity in liver” value in [2] (rats) is given as “high level of activity”. For the same compound, the “tracer activity in liver and kidneys” value in data set [3] is recorded as “high level of activity”. In addition, the “substrate for SULT1A1” value in data set [4] is “not a substrate for SULT1A1”. Moreover, the “sulfonation in brain in vivo” value in data set [5] is “sulfonated in the rat brain in vivo”. In data set [6], the “fraction of tracer in sulfated form in plasma” value is on record as ~90%. For the same compound, the “substrate for SULT1E1” value in [7] is recorded as “good marker of sulfotransferases, most specifically SULT1E1”.
With `O=[N+]([O-])c1cc(O)ccc1[18F]` [4-[^18F]-fluoro-3-nitrophenol, 4-[^18F]Fluoro-3-nitrophenol], the “substrate for SULT1A1 in vivo (microPET)” value in data set [1] (rat, bolus injection 0.5 to 2.0 mCi) is reported as “is a substrate for the sulfotransferase SULT1A1”.
For `CNc1ccc(-c2nc3ccc(O)cc3s2)cc1` [Compound 14], the Ki in data set [8] stood at 0.0051 ± 0.0003 µM.
On the same count and under the same terms, the value for `COc1ccc(-c2nc3ccc(O)cc3s2)cc1` [Compound 17] was 0.024 ± 0.002 µM; that for `CC(=O)Nc1ccc(-c2nc3ccc(O)cc3s2)cc1` [Compound 18] was 0.1 ± 0.02 µM.
As to `Oc1ccc2nc(-c3ccc(F)cc3)sc2c1` [Compound 19], the Ki in [8] was 0.14 ± 0.01 µM.
`O=c1c(O)c(-c2ccc(O)c(O)c2)oc2cc(O)cc(O)c12` [quercitin]: in [9], the IC50 is 0.016 ± 0.0023 µM.
